The target of one test is human JAK2 (Homo sapiens (Human), UniProt O60674). As to conditions: read-out: JAK2 IC50.
For the next test, the target named is human FAK (Homo sapiens (Human), UniProt Q05397). As to conditions: read-out: FAK IC50.

Structures are written as SMILES.

As a reminder, the IC50 is the midpoint of a concentration-inhibition curve.

Chain of human JAK2 (O60674 815-1132): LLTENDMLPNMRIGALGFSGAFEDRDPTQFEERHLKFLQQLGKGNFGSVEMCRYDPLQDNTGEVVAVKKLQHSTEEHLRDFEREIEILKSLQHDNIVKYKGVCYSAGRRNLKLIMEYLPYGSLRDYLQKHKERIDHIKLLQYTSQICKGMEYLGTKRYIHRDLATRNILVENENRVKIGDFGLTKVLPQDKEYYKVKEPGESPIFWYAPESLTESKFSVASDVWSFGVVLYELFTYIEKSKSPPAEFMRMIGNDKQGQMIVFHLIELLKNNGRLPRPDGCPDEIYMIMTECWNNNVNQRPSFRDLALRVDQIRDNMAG
Chain of human FAK (Q05397 whole entry): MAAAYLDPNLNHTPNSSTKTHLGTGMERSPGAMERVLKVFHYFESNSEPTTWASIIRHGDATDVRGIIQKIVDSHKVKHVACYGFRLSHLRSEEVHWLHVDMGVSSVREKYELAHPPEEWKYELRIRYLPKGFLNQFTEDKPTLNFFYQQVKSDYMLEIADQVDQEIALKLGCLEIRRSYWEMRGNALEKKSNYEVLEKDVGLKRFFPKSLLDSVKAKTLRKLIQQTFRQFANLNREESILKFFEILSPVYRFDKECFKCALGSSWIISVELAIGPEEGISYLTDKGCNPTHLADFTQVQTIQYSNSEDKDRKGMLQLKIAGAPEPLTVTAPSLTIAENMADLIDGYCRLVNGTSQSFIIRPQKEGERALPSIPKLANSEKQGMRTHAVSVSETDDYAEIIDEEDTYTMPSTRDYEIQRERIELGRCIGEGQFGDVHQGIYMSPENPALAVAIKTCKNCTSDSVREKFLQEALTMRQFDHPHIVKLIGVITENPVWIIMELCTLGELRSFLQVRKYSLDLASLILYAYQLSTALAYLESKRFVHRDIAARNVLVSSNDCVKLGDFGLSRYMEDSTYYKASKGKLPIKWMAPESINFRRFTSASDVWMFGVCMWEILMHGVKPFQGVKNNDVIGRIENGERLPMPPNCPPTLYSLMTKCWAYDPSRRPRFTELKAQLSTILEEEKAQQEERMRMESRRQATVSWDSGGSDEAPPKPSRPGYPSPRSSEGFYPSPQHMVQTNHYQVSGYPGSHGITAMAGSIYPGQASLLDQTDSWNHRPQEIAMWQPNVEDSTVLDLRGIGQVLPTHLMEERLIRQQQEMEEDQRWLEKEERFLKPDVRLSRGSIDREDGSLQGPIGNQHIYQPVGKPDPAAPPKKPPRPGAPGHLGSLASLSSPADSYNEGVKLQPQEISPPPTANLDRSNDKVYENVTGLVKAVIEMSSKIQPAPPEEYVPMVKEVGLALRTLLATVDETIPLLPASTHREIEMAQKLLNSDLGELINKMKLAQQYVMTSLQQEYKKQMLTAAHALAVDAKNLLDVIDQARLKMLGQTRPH

In the case of `Cn1ncc2c(-c3cccn4nc(Nc5ccc6c(c5)CCNCC6)nc34)cccc21` [Example 298, [8-(1-Methyl-1H-indazol-4-yl)-[1,2,4]triazolo[1,5a]pyridine-2-yl]-(2,3,4,5-tetrahydro-benzo[d]azepin-7-yl)-amine], the figures for the IC50 at human JAK2 and at human FAK were 16.5 nM and 1030 nM, respectively.

Take `CN1CCN(Cc2cccc(Nc3nc4c(-c5ccc(S(C)(=O)=O)cc5)cccn4n3)c2)CC1` [Example 116, [8-(4-Methanesulfonyl-phenyl)-[1,2,4]triazolo[1,5-a]pyridin-2-yl]-[3-(4-methyl-piperazin-1-ylmethyl)-phenyl]-amine]: the IC50 at human JAK2 was 3.07 nM; on human FAK it was 3000 nM.

As for `CN1CCN(c2ccc(Nc3nc4c(Nc5ccccc5CS(C)(=O)=O)cccn4n3)cc2)CC1` [Example 164, N(8)-(2-Methanesulfonylmethyl-phenyl)-N(2)-[4-(4-methyl-piperazin-1-yl)-phenyl]-[1,2,4]triazolo[1,5-a]pyridine-2,8-diamine], the half-maximal inhibitory concentration (IC50) stood at 22.1 nM at human JAK2 and 1280 nM on human FAK.

For `COc1ncccc1-c1cccn2nc(Nc3ccc(C4CCN(C(=O)OC(C)(C)C)CC4)cc3)nc12` [Example 271], the values for the IC50 on human JAK2 and on human FAK were 675 nM and 10000 nM, respectively.

As for `CC(C)COc1cccc(-c2cccn3nc(Nc4ccc5c(c4)CCNCC5)nc23)c1` [Example 294, [8-(3-Isobutoxy-phenyl]-[1,2,4]triazolo[1,5a]pyridine-2-yl]-(2,3,4,5-tetrahydro-benzo[d]azepin-7-yl)-amine], the IC50 at human JAK2 worked out at 32.6 nM; on human FAK it was 3000 nM.

As for `CS(=O)(=O)c1ccc(-c2cccn3nc(Nc4cccc(N5CCN(CC(N)=O)CC5)c4)nc23)cc1` [Example 183, 2-(4-{3-[8-(4-Methanesulfonyl-phenyl)-[1,2,4]triazolo[1,5-a]pyridin-2-ylamino]-phenyl}-piperazin-1-yl)-acetamide], the figures for the IC50 on human JAK2 and at human FAK were 0.65 nM and 6500 nM, respectively.

On to `CN(c1ccc(-c2cccn3nc(Nc4ccc(CN5CCS(=O)(=O)CC5)cc4)nc23)cc1)S(C)(=O)=O` [Example 119, N-{4-[2-({4-[(1,1-dioxidothiomorpholin-4-yl)methyl]phenyl}amino)[1,2,4]triazolo[1,5-a]pyridin-8-yl]phenyl}-N-methylmethanesulfonamide], for which the IC50 at human JAK2 came to 0.27 nM; on human FAK, 10000 nM.

On to `CS(=O)(=O)c1ccc(-c2cccc3nc(Nc4ccc(N5CCOCC5)cc4)nn23)cc1` [Example 12, [5-(4-Methanesulfonyl-phenyl)-[1,2,4]triazolo[1,5-a]pyridin-2-yl]-(4-morpholin-4-yl-phenyl)-amine], for which the IC50 at human JAK2 came out at 0.7 nM; on human FAK it was 434 nM.

As to `COc1ccc(C(F)(F)F)cc1-c1cccn2nc(Nc3ccc4c(c3)CCN(C(=O)OC(C)(C)C)C4)nc12` [Example 336, 6-[8-(2-Methoxy-5-trifluoromethyl-phenyl)-[1,2,4]triazolo[1,5-a]pyridin-2-ylamino]-3,4-dihydro-1H-isoquinoline-2-carboxylic acid tert-butyl ester], the results for the IC50 at human JAK2 and on human FAK were 1150 nM and 10000 nM, respectively.

As for `CN1Cc2ccc(Nc3nc4c(NCc5ccccc5N(C)S(C)(=O)=O)cccn4n3)cc2C1` [Example 167, N-Methyl-N-(2-{[2-(2-methyl-2,3-dihydro-1H-isoindol-5-ylamino)-[1,2,4]triazolo[1,5-a]pyridin-8-ylamino]-methyl}-phenyl)-methanesulfonamide], the IC50 at human JAK2 turned out to be 9.19 nM; at human FAK, 17.8 nM.

Regarding `COc1ccccc1-c1cccn2nc(Nc3ccc4c(c3)CCN(CCS(C)(=O)=O)CC4)nc12` [Example 314, [3-(2-Methanesulfonyl-ethyl)-2,3,4,5-tetrahydro-1H-3-benzazepin-7-yl]-[8-(2-methoxy-phenyl)-[1,2,4]triazolo[1,5-a]pyridine-2-yl]-amine], the results for the IC50 at human JAK2 and on human FAK were 17.8 nM and 10000 nM, respectively.

In the case of `c1ccc(-c2cccn3nc(Nc4ccc5c(c4)CCNCC5)nc23)c(OCC2CC2)c1` [Example 301, [8-(2-Cyclopropylmethoxy-phenyl]-[1,2,4]triazolo[1,5a]pyridine-2-yl]-(2,3,4,5-tetrahydro-benzo[d]azepin-7-yl)-amine], the IC50 at human JAK2 stood at 112 nM; on human FAK it was 2790 nM.

For the molecule `CN(C)C(=O)CN1CCc2ccc(Nc3nc4c(-c5cc(C(F)(F)F)ccc5OCC(F)F)cccn4n3)cc2CC1` [Example 329, 2-(7-{8-[2-(2,2-Difluoro-ethoxy)-5-trifluoromethyl-phenyl]-[1,2,4]triazolo[1,5-a]pyridin-2-ylamino}-1,2,4,5-tetrahydro-3-benzazepin-3-yl)-N,N-dimethyl-acetamide], the IC50 was 317 nM on human JAK2 and 999 nM at human FAK.

Turning to `CN1CCN(c2ccc(Nc3nc4c(OCc5ccccc5C#N)cccn4n3)cc2)CC1` [Example 262, 2-{2-[4-(4-Methyl-piperazin-1-yl)-phenylamino]-[1,2,4]triazolo[1,5-a]pyridin-8-yloxymethyl}-benzonitrile], the IC50 was found to be 15.1 nM at human JAK2 and 2560 nM on human FAK.

Regarding `COc1ncc(C(F)(F)F)cc1-c1cccn2nc(Nc3ccc(C4CCN(CC(=O)N(C)C)CC4)cc3)nc12` [Example 279, 2-(4-{4-[8-(2-Methoxy-5-trifluoromethyl-pyridin-3-yl)-[1,2,4]triazolo[1,5-a]pyridin-2-ylamino]-phenyl}-piperidin-1-yl)-N,N-dimethyl-acetamide], the IC50 at human JAK2 is 74.6 nM; on human FAK, 10000 nM.

Regarding `CN1CCN(c2ccc(Nc3nc4c(OCc5ccccc5N(C)S(C)(=O)=O)cccn4n3)cc2)CC1` [Example 195, N-Methyl-N-(2-{2-[4-(4-methyl-piperazin-1-yl)-phenylamino]-[1,2,4]triazolo[1,5-a]pyridin-8-yloxymethyl}-phenyl)-methanesulfonamide], the IC50 at human JAK2 worked out at 15 nM; at human FAK, 21.8 nM.

As for `COc1ccc(Nc2nc3cccc(-c4ccc(CN5CCS(=O)(=O)CC5)cc4)n3n2)cc1` [Example 95, 5-{4-[(1,1-dioxidothiomorpholin-4-yl)methyl]phenyl}-N-(4-methoxyphenyl)[1,2,4]triazolo[1,5-a]pyridin-2-amine], the IC50 came to 1 nM at human JAK2 and 2000 nM at human FAK.

Take `CN1Cc2ccc(Nc3nc4c(-c5ccc(S(C)(=O)=O)cc5)cccn4n3)cc2C1` [Example 168, [8-(4-Methanesulfonyl-phenyl)-[1,2,4]triazolo[1,5-a]pyridin-2-yl]-(2-methyl-2,3-dihydro-1H-isoindol-5-yl)-amine]: the IC50 on human JAK2 was determined as 0.73 nM; on human FAK it was 816 nM.

Take `CN1CCN(c2ccc(Nc3nc4cccc(-c5cccc(NS(C)(=O)=O)c5)n4n3)cc2)CC1` [Example 83, N-(3-{2-[4-(4-Methyl-piperazin-1-yl)-phenylamino]-[1,2,4]triazolo[1,5-a]pyridin-5-yl}-phenyl)-methanesulfonamide]: the IC50 was 19 nM on human JAK2 and 553 nM on human FAK.

With `CN1CCN(c2cccc(Nc3nc4c(Nc5ccccc5CN(C)S(C)(=O)=O)cccn4n3)c2)CC1` [Example 172, N-Methyl-N-(2-{2-[3-(4-methyl-piperazin-1-yl)-phenylamino]-[1,2,4]triazolo[1,5-a]pyridin-8-ylamino}-benzyl)-methanesulfonamide], the figures for the half-maximal inhibitory concentration (IC50) at human JAK2 and on human FAK were 453 nM and 3000 nM, respectively.

On to `CN1CCN(c2ccc(Nc3nc4c(-c5ccccc5S(C)(=O)=O)cccn4n3)cc2)CC1` [Example 66, [8-(2-Methanesulfonyl-phenyl)-[1,2,4]triazolo[1,5-a]pyridin-2-yl]-[4-(4-methyl-piperazin-1-yl)-phenyl]-amine], for which the values for the IC50 on human JAK2 and on human FAK were 1330 nM and 10000 nM, respectively.

As for `CN1CCN(c2cccc(Nc3nc4c(-c5ccc(N6CCC(N7CCN(C)CC7)CC6)cc5)cccn4n3)c2)CC1` [Example 206, [3-(4-Methyl-piperazin-1-yl)-phenyl]-(8-{4-[4-(4-methyl-piperazin-1-yl)-piperidin-1-yl]-phenyl}-[1,2,4]triazolo[1,5-a]pyridin-2-yl)-amine], the figures for the IC50 on human JAK2 and on human FAK were 45 nM and 3000 nM, respectively.

In the case of `COc1ccc(Nc2nc3c(Nc4ccc(S(C)(=O)=O)cc4)cccn3n2)cc1` [Example 38, N(8)-(4-Methanesulfonyl-phenyl)-N(2)-(4-methoxy-phenyl)-[1,2,4]triazolo[1,5-a]pyridine-2,8-diamine], the IC50 on human JAK2 came out at 470 nM; on human FAK, 10000 nM.

As for `COc1cc(Cl)ccc1-c1cccn2nc(Nc3ccc4c(c3)CCN(CC(=O)N(C)C)C4)nc12` [Example 331, 2-{6-[8-(4-Chloro-2-methoxy-phenyl)-[1,2,4]-triazolo[1,5-a]pyridin-2-ylamino]-3,4-dihydro-1H-isoquinolin-2-yl}-N,N-dimethyl-acetamide], the IC50 at human JAK2 turned out to be 21.2 nM; on human FAK, 6500 nM.

As for `CS(=O)(=O)c1ccccc1CNc1cccn2nc(Nc3ccc(OCCN4CCCC4)cc3)nc12` [Example 141, N(8)-(2-Methanesulfonyl-benzyl)-N(2)-[4-(2-pyrrolidin-1-yl-ethoxy)-phenyl]-[1,2,4]triazolo[1,5-a]pyridine-2,8-diamine], the IC50 at human JAK2 is 15.1 nM; on human FAK it was 98.8 nM.

`CC(C)(C)OC(=O)N1CCN(c2ccc(Nc3nc4cccc(-c5ccc(S(C)(=O)=O)cc5)n4n3)cc2)CC1` [Example 75, 4-{4-[5-(4-Methanesulfonyl-phenyl)-[1,2,4]triazolo[1,5-a]pyridin-2-ylamino]-phenyl}-piperazine-1-carboxylic acid tert-butyl ester]: the IC50 on human JAK2 came out at 1.3 nM; at human FAK, 359 nM.

Take `CN1CCN(c2cccc(N(c3cccc(N4CCN(C)CC4)c3)c3nc4c(-c5ccc(S(C)(=O)=O)cc5)cc(F)cn4n3)c2)CC1` [Example 105, [6-Fluoro-8-(4-methanesulfonyl-phenyl)-[1,2,4]triazolo[1,5-a]pyridin-2-yl]-bis-[3-(4-methyl-piperazin-1-yl)-phenyl]-amine]: the IC50 at human JAK2 came out at 324 nM; on human FAK, 1050 nM.

For the origin of these results see patent US8501936B2 (priority 2009, dated 2013).
